Source: US4921958A, “Piperazinylalkylcarboxylic acid adamantylamides” (American Home Products Corporation, priority 1989, dated 1990)
Like-named read-outs stand apart in the source and are kept apart here.

Key:
[1] = target: T1, 5-HT1A serotonin receptor subtype (Rattus norvegicus, UniProt P19327); assay: Displacement of 3H-8-OH DPAT from the 5-HT1A serotonin receptor subtype (Hall et al.); assay type: binding; details: for inhibition at 1 µM: 1 μM test compound, read-out: % Inhibition at 1 μM (Affinity for 5-HT1A Receptor Sites); for Ki: calculated from appropriate IC50 values, 3H-8-OH DPAT, read-out: Ki (Affinity for 5-HT1A Receptor Sites)
T1 construct: from tissue
T1 sequence (P19327 1-422): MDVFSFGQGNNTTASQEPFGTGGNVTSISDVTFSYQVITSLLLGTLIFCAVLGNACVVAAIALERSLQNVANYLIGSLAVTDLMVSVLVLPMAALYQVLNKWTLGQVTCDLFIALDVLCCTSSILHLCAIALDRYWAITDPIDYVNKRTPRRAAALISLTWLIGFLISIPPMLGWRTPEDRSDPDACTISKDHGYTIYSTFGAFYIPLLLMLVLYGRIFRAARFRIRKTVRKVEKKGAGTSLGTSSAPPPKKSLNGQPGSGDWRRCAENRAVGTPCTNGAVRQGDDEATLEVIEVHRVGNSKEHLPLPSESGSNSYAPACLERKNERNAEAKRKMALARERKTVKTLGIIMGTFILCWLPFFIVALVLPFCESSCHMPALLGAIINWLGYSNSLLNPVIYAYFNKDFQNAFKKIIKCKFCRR
Excerpt: The serotoninergic properties of the compounds of this invention were established by the procedure of Hall et al., J. Neurochem.

[2] = target: T2, limbic D2 (dopamine) receptor (Rattus norvegicus, UniProt P61169); assay: Inhibition of 3H-spiroperidol binding to limbic brain tissue (D2 receptor affinity; modified Fields et al. and Yamamura et al.); details: 1 μM test compound
T2 construct: from tissue; host or cells: limbic brain tissue
Protocol: The compounds of this invention are antidepressant, anxiolytic agents useful in the treatment of depression and/or anxiety as a singular, primary mental problem as well as secondary, attending problems such as sexual dysfunction. […] The D2 receptor affinity of the compounds of this invention was determined by a modification of the test procedure of Fields et al., Brain Res. 136, 578 (1977) and Yamamura et. al., eds., Neurotransmitter Receptor Binding, Raven Press, N.Y. (1978) as discussed in U.S. No. 4,636,563. The percentage reduction of ^3 H-spiroperidol binding at 1 μM concentration of test compound is reported, infra.

[3] = in words, Barone et al., 1986; cited from earlier work
[4] = 3H-spiroperidol, read-out: % Inhibition at 1 μM (Affinity for D2 Receptor Sites)

T2 sequence (P61169 whole entry): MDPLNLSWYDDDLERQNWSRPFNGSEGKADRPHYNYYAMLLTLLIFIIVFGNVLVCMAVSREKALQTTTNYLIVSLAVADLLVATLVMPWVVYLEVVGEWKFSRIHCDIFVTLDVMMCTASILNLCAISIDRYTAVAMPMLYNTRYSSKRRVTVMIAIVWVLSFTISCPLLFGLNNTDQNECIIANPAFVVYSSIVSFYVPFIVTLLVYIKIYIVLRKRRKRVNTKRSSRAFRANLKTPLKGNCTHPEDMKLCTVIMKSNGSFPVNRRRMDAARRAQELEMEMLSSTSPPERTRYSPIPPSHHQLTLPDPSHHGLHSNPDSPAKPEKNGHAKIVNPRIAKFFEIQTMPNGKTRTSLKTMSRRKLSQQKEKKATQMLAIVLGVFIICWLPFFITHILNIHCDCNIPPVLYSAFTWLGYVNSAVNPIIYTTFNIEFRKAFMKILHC

O=C(CCN1CCN(c2ncccn2)CC1)NC12CC3CC(CC(C3)C1)C2 [Example 1, 4-(2-pyrimidyl)-N-tricyclo[3.3.1.1(3.7)]dec-1-yl-1-piperazinepropanamide]
inhibition at 1 µM ([1]; displacement of 3H-8-OH DPAT): 79%
Ki [1]: 130 nM
inhibition at 1 µM [2, 4]: 14%

Cc1nc2sccn2c(=O)c1CCN1CCC(=C(c2ccc(F)cc2)c2ccc(F)cc2)CC1 [Ritanserin]
clinical efficacy as anxiolytic-antidepressant agents [3]: demonstrate clinical efficacy

COc1ccccc1N1CCN(CC(C(=O)NC23CC4CC(CC(C4)C2)C3)c2ccccc2)CC1 (stereo not shown) [Example 3, N-(1-Tricyclo[3.3.1.1(3,7)]decyl)-3-[1-[4-(2-methoxyphenyl)piperazinyl]]-2-phenylpropanamide]
Ki [1]: 83 nM

COc1ccccc1N1CCN(CCC(=O)NC23CC4CC(CC(C4)C2)C3)CC1 [Example 2, 4-(2-methoxyphenyl)-N-tricyclo[3.3.1.1(3,7)]dec-1-yl-1-piperazinepropanamide]
inhibition at 0.1 µM ([1]; 100 nM test compound, displacement of 3H-8-OH DPAT, read-out: % Inhibition at 100 nM (Affinity for 5-HT1A Receptor Sites)): 86%
inhibition at 1 µM ([1]; displacement of 3H-8-OH DPAT): 100%
Ki [1]: 9 nM
inhibition at 1 µM [2, 4]: 74%
inhibition at 1 µM ([2]; limbic brain tissue, read-out: inhibition of 3H-spiroperidol binding to limbic brain tissue): 74%
